ChEMBL document CHEMBL1201862, “PubChem BioAssay data set” (2004)
Blank lines part the entries; values can stand above or below the compound they belong to. Activity calls are given as the source filed them.

Legend:
[1] = target: T1, Tyrosine-protein phosphatase non-receptor type 7 (Homo sapiens, UniProt P35236); type: functional
T1 sequence (P35236 whole entry): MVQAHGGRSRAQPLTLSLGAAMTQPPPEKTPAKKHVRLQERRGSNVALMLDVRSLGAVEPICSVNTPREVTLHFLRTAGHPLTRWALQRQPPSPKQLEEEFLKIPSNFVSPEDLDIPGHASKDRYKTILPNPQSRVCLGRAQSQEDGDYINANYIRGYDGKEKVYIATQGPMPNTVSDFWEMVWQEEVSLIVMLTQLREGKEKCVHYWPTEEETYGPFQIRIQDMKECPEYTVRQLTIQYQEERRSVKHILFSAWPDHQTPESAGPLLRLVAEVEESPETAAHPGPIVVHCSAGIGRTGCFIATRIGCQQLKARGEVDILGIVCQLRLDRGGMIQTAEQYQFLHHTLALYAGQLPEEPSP

[2] = target: Glyceraldehyde-3-phosphate dehydrogenase (Homo sapiens, UniProt P04406)
Glyceraldehyde-3-phosphate dehydrogenase, sequence (P04406 whole entry): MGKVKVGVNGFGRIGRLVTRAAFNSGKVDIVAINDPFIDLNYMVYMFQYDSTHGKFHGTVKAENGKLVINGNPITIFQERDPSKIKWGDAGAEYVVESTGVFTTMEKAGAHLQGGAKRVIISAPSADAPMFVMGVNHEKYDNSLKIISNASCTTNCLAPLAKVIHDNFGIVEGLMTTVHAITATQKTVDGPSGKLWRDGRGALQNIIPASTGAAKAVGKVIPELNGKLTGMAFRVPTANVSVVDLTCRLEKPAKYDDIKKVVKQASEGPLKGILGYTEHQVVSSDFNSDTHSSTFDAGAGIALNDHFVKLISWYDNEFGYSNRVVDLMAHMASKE

[3] = target: T2, Dual specificity protein phosphatase 6 (Rattus norvegicus, UniProt Q64346)
T2 sequence (Q64346 whole entry): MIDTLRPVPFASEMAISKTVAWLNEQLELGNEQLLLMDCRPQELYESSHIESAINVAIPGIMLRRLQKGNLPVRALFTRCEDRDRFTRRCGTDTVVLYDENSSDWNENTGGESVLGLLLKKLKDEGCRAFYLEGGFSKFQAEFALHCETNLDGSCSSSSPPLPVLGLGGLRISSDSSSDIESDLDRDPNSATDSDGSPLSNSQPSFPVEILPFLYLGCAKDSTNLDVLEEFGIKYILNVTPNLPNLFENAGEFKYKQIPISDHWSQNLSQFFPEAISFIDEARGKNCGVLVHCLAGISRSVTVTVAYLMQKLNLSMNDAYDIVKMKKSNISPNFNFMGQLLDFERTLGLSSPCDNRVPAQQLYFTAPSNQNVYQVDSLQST

[4] = target: T2, Dual specificity protein phosphatase 6; type: functional
Escherichia coli = assay: microbe, parasite or virus in culture
[5] = target: Delta-type opioid receptor (Homo sapiens, UniProt P41143); assay: Counterscreen for agonists of heterodimerization of the mu 1 (OPRM1) and delta 1 (OPRD1) opioid receptors: Luminescence-based cell-based high throughput dose response assay to identify agonists of OPRD1 homodimerization. [Related pubchem assays (depositor defined):AID504326, AID504355, AID504692, AID504904, AID504905]; type: functional
Delta-type opioid receptor, sequence (P41143 whole entry): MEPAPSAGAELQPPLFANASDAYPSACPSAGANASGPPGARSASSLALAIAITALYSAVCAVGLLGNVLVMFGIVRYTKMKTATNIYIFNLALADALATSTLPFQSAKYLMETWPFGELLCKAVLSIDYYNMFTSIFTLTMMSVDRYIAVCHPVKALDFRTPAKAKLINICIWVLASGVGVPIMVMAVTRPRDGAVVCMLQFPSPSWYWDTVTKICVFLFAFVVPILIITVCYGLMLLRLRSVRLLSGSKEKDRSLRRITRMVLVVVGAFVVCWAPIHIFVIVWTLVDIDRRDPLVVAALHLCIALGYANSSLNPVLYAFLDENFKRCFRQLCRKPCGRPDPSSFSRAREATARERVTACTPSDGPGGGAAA

Mu-type opioid receptor [6] = target: T3, Mu-type opioid receptor (Homo sapiens, UniProt P35372); assay: Counterscreen for agonists of heterodimerization of the mu 1 (OPRM1) and delta 1 (OPRD1) opioid receptors: Luminescence-based cell-based high throughput dose response assay to identify agonists of OPRM1 homodimerization.; type: functional
T3 sequence (P35372 whole entry): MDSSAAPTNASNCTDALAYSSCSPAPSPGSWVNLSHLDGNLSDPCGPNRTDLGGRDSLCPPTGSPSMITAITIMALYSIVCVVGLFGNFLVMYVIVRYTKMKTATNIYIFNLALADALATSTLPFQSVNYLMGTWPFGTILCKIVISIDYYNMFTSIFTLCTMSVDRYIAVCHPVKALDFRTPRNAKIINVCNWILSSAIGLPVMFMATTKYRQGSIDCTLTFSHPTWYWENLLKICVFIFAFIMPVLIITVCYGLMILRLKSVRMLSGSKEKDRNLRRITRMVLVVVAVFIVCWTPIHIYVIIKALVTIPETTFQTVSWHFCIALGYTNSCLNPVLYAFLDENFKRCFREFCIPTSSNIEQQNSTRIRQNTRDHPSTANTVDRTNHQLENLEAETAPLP

[7] = target: 5-hydroxytryptamine receptor 5A (Homo sapiens, UniProt P47898); assay: Counterscreen for agonists of OPRM1-OPRD1 heterodimerization: luminescence-based cell-based high throughput dose response assay to identify agonists of 5-hydroxytryptamine (serotonin) 5A receptor (HTR5A). [Related pubchem assays (depositor defined):AID504326, AID504355, AID504692, AID504904, AID504905]; type: functional
5-hydroxytryptamine receptor 5A, sequence (P47898 whole entry): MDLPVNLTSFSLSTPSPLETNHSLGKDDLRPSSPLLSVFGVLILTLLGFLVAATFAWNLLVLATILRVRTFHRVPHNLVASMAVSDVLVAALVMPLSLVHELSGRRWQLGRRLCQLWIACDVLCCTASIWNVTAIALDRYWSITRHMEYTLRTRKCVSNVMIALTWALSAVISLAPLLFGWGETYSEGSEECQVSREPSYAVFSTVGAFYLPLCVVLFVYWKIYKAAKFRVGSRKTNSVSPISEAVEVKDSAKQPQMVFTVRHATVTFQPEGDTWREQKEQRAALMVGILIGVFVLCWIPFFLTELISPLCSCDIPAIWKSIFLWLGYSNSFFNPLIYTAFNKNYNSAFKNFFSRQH

[8] = non-specific cell cytotoxicity, dose response, cytotoxicity control for PAX8 inhibitor project, plate reader, dry powder samples (AID 743021); type: functional, cell-based
Mu-type opioid receptor [9] = target: T3, Mu-type opioid receptor; type: functional, cell-based
[10] = target: 5-hydroxytryptamine receptor 2A (Mus musculus, UniProt P35363); type: functional, cell-based;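 note: CHO-K1 cells with tagged receptor and beta-arrestin; agonist potency measured as compound-induced activation of the receptor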
5-hydroxytryptamine receptor 2A, sequence (P35363 whole entry): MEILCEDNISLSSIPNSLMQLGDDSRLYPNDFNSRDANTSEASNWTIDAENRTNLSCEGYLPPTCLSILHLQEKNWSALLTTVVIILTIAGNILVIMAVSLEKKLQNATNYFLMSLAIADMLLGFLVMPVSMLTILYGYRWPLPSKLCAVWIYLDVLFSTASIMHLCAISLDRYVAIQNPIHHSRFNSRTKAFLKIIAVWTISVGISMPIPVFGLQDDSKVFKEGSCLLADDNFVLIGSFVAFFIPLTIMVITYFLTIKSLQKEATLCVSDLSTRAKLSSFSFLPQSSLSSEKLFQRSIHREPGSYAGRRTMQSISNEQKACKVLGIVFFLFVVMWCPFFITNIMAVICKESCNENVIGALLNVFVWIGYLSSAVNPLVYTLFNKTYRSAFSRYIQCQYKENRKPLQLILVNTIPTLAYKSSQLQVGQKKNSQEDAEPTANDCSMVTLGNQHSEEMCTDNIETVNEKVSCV

cells [11] = type: functional, cell-based
[12] = target: T4, Trace amine-associated receptor 1 (Homo sapiens, UniProt Q96RJ0); assay: Fluorescence-based cell-based high throughput dose response assay to identify agonists of the human trace amine associated receptor 1 (TAAR1).; type: functional
T4 sequence (Q96RJ0 whole entry): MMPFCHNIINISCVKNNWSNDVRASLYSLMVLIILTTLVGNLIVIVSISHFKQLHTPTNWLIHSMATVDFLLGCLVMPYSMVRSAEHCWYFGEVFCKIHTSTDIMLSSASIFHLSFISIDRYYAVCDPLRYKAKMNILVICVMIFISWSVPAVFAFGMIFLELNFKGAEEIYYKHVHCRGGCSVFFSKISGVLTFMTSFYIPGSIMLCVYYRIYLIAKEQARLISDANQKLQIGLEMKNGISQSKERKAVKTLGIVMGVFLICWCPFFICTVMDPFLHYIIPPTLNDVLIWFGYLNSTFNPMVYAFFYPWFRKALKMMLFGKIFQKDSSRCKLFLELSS

[13] = target: T4, Trace amine-associated receptor 1; assay: Counterscreen for agonists of the human trace amine associated receptor 1 (hTAAR1): Fluorescence-based cell-based high throughput dose response assay to identify hTAAR1 agonist that also desensitize TAAR1 receptor response.; type: functional
cells [14] = type: functional, cell-based; remark: listed apart in the source
[15] = target: Voltage-gated inwardly rectifying potassium channel KCNH2 (Homo sapiens, UniProt Q12809); settings: Potency;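 note: confirmatory quantitative high-throughput screen measuring inhibition of hERG channel activity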
Voltage-gated inwardly rectifying potassium channel KCNH2, sequence (Q12809 whole entry): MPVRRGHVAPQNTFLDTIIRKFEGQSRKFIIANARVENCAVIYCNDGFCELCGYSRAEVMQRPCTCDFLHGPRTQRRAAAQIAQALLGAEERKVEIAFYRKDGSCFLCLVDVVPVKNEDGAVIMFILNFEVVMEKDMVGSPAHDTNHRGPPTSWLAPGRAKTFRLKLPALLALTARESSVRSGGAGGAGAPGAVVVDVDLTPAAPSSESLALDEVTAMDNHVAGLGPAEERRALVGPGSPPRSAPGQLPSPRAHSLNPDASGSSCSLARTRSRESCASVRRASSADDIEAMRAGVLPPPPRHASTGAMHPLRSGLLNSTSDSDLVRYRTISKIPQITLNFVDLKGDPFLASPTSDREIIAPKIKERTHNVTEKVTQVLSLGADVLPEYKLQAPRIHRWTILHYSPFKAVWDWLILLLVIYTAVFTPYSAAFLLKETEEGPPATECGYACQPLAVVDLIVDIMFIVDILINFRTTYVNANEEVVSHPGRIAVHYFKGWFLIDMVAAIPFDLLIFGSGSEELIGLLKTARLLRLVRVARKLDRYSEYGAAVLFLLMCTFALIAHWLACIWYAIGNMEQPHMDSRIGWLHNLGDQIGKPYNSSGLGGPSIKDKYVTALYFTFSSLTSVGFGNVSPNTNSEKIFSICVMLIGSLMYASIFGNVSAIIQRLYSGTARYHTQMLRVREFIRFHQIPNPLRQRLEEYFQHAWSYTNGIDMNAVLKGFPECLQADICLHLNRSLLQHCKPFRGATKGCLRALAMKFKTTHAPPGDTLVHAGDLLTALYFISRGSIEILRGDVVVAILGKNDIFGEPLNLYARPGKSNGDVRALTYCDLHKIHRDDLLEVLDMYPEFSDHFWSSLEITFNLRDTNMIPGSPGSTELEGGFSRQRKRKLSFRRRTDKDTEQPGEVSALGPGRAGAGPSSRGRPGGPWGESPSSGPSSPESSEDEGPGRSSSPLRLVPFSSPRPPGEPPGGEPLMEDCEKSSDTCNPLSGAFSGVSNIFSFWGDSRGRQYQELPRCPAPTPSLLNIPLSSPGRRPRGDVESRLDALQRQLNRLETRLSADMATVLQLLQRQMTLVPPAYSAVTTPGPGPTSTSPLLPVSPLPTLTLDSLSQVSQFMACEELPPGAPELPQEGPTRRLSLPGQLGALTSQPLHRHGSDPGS

HeLa = assay: HeLa cell cytotoxicity, dose response, cytotoxicity control for MITF activator project, CellTiter-Glo luminescence, cherry-pick samples (AID 540259); type: functional, cell-based; settings: Homo sapiens
Protein skinhead-1 = target: T5, Protein skinhead-1 (Caenorhabditis elegans, UniProt P34707); type: functional
T5 sequence (P34707 whole entry): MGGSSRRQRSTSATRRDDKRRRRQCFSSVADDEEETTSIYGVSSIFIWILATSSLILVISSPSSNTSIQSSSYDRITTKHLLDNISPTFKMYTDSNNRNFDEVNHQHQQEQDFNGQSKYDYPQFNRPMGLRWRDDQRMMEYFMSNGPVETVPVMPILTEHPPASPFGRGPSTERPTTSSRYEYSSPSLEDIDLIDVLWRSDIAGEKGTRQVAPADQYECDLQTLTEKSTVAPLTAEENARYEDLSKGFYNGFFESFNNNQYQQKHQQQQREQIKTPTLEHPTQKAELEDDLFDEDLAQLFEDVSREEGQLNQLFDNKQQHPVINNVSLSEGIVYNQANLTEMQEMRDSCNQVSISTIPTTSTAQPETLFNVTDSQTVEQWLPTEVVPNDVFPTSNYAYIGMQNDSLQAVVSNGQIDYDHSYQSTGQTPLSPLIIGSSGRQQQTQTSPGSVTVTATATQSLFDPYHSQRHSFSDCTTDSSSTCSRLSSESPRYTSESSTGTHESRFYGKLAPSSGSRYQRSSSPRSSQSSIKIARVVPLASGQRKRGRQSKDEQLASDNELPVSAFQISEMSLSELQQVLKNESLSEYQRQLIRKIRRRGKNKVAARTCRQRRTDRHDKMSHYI

[16] = target: T6, Neuropeptides B/W receptor type 1 (Homo sapiens, UniProt P48145); assay: Fluorescence-based dose response cell-based high throughput screening assay to identify antagonists of the G-protein coupled receptor 7 (GPR7). [Related pubchem assays: 1952 (Screening assay (GPR7 antagonists).), 1880 (Summary AID.)]; type: functional
T6 sequence (P48145 whole entry): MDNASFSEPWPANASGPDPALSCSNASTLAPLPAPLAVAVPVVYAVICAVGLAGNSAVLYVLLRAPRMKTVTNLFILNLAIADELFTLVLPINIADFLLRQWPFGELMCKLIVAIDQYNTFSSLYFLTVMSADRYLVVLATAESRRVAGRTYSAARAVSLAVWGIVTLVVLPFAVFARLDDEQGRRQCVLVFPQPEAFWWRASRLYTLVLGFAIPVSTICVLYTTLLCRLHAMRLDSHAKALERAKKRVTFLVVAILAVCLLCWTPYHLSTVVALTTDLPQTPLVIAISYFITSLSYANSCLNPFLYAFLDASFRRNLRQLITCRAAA

[17] = target: Melanin-concentrating hormone receptor 1 (Homo sapiens, UniProt Q99705); assay: Fluorescence-based counterscreen for antagonists of the G-protein coupled receptor 7 (GPR7): cell-based high throughput dose response assay to identify antagonists of the melanin-concentrating hormone receptor 1 (MCHR1).; type: functional
Melanin-concentrating hormone receptor 1, sequence (Q99705 whole entry): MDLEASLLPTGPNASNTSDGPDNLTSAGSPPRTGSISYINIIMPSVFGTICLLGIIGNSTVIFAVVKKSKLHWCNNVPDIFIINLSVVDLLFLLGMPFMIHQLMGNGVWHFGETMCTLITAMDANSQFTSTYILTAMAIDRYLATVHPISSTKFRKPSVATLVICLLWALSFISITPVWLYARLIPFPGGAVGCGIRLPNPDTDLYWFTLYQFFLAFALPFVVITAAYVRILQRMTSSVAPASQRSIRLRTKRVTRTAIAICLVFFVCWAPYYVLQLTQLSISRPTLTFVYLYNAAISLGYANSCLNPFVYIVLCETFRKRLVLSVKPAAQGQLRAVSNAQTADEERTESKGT

Hexokinase-1 = target: T7, Hexokinase-1 (Homo sapiens, UniProt P19367); assay: HK1 enzyme inhibition by HKDC1 hits, SAR follow-up, selectivity assay for HKDC1 inhibitor project, biochemical, set 2, resazurin fluorescence coupled readout (AID 588356); type: functional
T7 sequence (P19367 whole entry): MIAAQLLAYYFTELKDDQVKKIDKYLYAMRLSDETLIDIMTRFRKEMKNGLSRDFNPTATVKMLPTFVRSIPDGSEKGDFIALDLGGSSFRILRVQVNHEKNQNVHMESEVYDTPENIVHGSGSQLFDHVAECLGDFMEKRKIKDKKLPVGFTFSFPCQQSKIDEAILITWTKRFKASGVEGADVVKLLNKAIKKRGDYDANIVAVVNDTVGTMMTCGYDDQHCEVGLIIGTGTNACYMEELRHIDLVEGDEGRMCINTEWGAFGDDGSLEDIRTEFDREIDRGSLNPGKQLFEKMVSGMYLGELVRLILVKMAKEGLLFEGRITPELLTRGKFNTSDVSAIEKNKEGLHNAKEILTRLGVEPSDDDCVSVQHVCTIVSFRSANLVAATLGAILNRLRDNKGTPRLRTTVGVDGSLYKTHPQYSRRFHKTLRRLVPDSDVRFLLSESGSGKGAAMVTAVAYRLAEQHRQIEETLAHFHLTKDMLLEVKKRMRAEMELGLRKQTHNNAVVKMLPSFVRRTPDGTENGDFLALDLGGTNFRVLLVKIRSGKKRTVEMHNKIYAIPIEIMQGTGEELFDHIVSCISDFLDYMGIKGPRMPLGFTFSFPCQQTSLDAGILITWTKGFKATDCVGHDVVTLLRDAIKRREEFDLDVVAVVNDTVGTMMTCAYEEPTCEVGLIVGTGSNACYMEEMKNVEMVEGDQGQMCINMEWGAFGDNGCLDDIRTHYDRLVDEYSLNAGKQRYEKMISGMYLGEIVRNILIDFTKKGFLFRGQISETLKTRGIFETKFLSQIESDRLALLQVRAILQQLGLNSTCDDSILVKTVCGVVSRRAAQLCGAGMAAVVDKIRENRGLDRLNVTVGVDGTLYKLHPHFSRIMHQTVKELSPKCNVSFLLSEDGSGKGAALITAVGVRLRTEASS

Hexokinase HKDC1 = target: T8, Hexokinase HKDC1 (Homo sapiens, UniProt Q2TB90); assay: HKDC1 hexokinase inhibitors, SAR follow-up, biochemical, set 2 (AID 588355); type: functional
T8 sequence (Q2TB90 whole entry): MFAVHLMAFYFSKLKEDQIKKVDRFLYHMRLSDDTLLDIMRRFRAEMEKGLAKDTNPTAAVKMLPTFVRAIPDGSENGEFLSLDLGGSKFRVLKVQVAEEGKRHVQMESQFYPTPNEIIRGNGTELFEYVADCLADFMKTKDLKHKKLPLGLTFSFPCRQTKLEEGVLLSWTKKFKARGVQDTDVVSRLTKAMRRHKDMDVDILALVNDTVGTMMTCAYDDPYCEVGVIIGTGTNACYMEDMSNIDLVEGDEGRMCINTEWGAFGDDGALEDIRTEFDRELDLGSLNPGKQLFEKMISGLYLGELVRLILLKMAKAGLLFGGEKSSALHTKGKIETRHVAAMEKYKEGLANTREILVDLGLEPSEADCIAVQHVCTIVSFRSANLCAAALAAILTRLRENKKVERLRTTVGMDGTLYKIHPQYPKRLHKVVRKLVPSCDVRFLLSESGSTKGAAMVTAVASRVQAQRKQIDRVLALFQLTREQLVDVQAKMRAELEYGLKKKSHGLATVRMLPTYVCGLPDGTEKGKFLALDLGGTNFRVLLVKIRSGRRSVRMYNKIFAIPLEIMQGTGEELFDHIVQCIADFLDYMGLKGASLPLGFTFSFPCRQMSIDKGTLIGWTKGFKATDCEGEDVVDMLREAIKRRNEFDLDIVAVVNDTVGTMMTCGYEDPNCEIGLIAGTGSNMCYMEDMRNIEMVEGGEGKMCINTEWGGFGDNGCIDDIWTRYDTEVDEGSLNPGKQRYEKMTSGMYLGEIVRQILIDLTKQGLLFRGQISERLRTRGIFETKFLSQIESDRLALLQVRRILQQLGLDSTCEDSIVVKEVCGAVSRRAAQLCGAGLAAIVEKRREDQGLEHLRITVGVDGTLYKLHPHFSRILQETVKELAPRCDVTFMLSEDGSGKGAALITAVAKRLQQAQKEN

IC50 [1]: > 100 µM (not active)
IC50 [2]: > 100 µM (not active)
IC50 [3]: > 100 µM (inactive)
IC50 [4]: > 100 µM (inactive)
SMILES: CCCn1c(=O)nc(NCCc2ccccc2)[nH]c1=O

SMILES: CC(C)OCC(O)CN1CCN(CC(O)COc2ccc3c(c2)OCO3)CC1 (stereo not drawn)
AC50 (Escherichia coli): 62.7 µM (active)

SMILES: COc1ccc(C2Nc3ccccc3C(=O)N2c2ccc(F)cc2)cc1CSc1ccccn1 (stereo not drawn)
EC50 [5]: > 30.8 µM (inactive)
EC50 (Mu-type opioid receptor [6]): > 92.4 µM (inactive)
EC50 [7]: > 92.4 µM (inactive)
AC50 [8]: 48.8 µM (active)

SMILES: Oc1ccc(C2CNCc3sccc32)cc1O (stereo not drawn)
EC50 (Mu-type opioid receptor [9]): 92.5 µM (inactive)
EC50 [10]: 0.452 µM (active)
IC50 (cells [11]): > 29.9 µM (inactive)
EC50 [12]: 0.752 µM (active)
IC50 [13]: 4.33 µM (active)
EC50 (cells [14]): > 29.9 µM (inactive)
AC50 [15]: 11.2 µM (inconclusive)

EC50 [5]: > 92.5 µM (inactive)
EC50 (Mu-type opioid receptor [6]): > 92.5 µM (inactive)
EC50 [7]: > 92.5 µM (inactive)
SMILES: CCOC(=O)c1c(C)[nH]c(C(=O)OC/C(O)=C(\C#N)c2nc3ccccc3[nH]2)c1C

SMILES: COc1ccc(C(=O)NN=C(NS(=O)(=O)c2ccc(C)cc2)c2ccccc2)cc1
AC50 (HeLa): 55.4 µM (active)
IC50 (Protein skinhead-1): > 100 µM (inactive)

SMILES: COc1cc(Cl)ccc1OCc1cc(C(=O)NCC(C)(C)N2CCOCC2)no1
AC50 (Escherichia coli): 33.9 µM (active)

SMILES: CC1CC(OC(=O)c2ccccc2O)CC(C)(C)C1 (stereo not drawn) [HOMOSALATE]
AC50 [15]: 6.31 µM (inconclusive)

IC50 [16]: > 43.8 µM (not active)
IC50 [17]: > 43.8 µM (not active)
IC50 (Hexokinase-1): > 80 µM (inactive)
IC50 (Hexokinase HKDC1): > 80 µM (inactive)
SMILES: CCCCN1C(=O)C(NC(C)=O)c2cc(Br)ccc21 (stereo not drawn)

SMILES: COc1ccc2cc(-c3nc4ccccc4n3C)c(=O)oc2c1
AC50 (HeLa): 174 µM (active)
